From patent US11214803B2, “Modulators of YAP1 expression” (Ionis Pharmaceuticals, Inc., priority 2019, dated 2022)
Marks after values point to notes of the source that are not given here. Strand notation (5' to 3'): a small letter for the sugar, then the base; units joined by * are phosphorothioate-linked, units joined directly phosphodiester-linked; [ ] holds rarer units or linkages, { } end groups; capitals alone tell only the bases. k = constrained ethyl (cEt); [5mC] = 5-methylcytosine; d = 2'-deoxy (DNA)

Each substance was assayed on Yap1 mRNA (assay: Antisense inhibition of human Yap1 in A-431 cells by cEt gapmers, single dose (Example 2, RTS4814)). Settings: A-431 cells, 5,000 cells per well, free uptake, 2,000 nM modified oligonucleotide, approx. 48 hours, RTS4814, normalized to RIBOGREEN; Table 4; asterisk (*) = targets amplicon region of primer probe set.
Assay type: cell-based
In short: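 Each 16-nucleoside gapmer (ten-deoxy gap, three-cEt wings) is tested once at 2,000 nM in A-431 cells by free uptake. Yap1 mRNA after about 48 hours is measured by quantitative RT-PCR and expressed relative to untreated control.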
With “716493 (kA*k[5mC]*kA*dT*dT*dG*dA*dA*dA*dG*dA*d[5mC]*d[5mC]*k[5mC]*kT*kT; antisense) [Compound 716493]” the “YAP1 (% UTC)” value was 30 % UTC.

Same assay, conditions: Table 5; A-431 cells, 5,000 cells per well, free uptake, 2,000 nM modified oligonucleotide, approx. 48 hours; RTS4814; normalized to RIBOGREEN; Yap1 mRNA relative to untreated control cells
In the case of “716470 (kA*kA*kT*d[5mC]*dG*dA*dG*dA*d[5mC]*dT*dT*dA*dA*kA*kA*kA; antisense) [Compound 716470]”, the “YAP1 (% UTC)” value is reported as 104 % UTC.

Same assay, conditions: Table 6; A-431 cells, 5,000 cells per well, free uptake, 2,000 nM modified oligonucleotide, approx. 48 hours; RTS4814; normalized to RIBOGREEN; Yap1 mRNA relative to untreated control cells
For “716480 (kG*k[5mC]*kA*dA*dG*dT*d[5mC]*dT*dT*dG*dT*dA*dA*kG*kT*kA; antisense) [Compound 716480]”, the “YAP1 (% UTC)” value was 18 % UTC.

Same assay, conditions: Table 18; A-431 cells, 5,000 cells per well, free uptake, 2,000 nM modified oligonucleotide, approx. 48 hours; RTS4814; normalized to RIBOGREEN; Yap1 mRNA as percent of untreated control
“1074212 (antisense kG*k[5mC]*kT*dT*d[5mC]*d[5mC]*dG*dG*dA*dG*d[5mC]*d[5mC]*dT*k[5mC]*kA*kT) [Compound 1074212]” was tested, and the “YAP1 (% UTC)” value was 53 % UTC.

Same assay, conditions: Table 19; A-431 cells, 5,000 cells per well, free uptake, 2,000 nM modified oligonucleotide, approx. 48 hours; RTS4814; normalized to RIBOGREEN; Yap1 mRNA as percent of untreated control
For “1075109 (antisense kA*k[5mC]*kT*dA*dA*dA*dA*dA*d[5mC]*dA*dT*dT*dG*kT*kG*kG) [Compound 1075109]”, the “YAP1 (% UTC)” value was 71 % UTC.
“1074565 (antisense kA*k[5mC]*kT*dG*dA*dA*dT*dT*d[5mC]*d[5mC]*dA*dA*dT*k[5mC]*kG*kA) [Compound 1074565]” was tested, and the “YAP1 (% UTC)” value was 5 % UTC.
With “1076229 (kA*kA*kT*dT*dA*dA*d[5mC]*d[5mC]*dT*d[5mC]*dA*dG*dT*kG*kA*kG; antisense) [Compound 1076229]” the “YAP1 (% UTC)” value was 91 % UTC.
In the case of “1075781 (k[5mC]*kA*kT*dA*dT*dA*dT*dT*dG*dT*dG*dA*d[5mC]*kT*kT*k[5mC]; antisense) [Compound 1075781]”, the “YAP1 (% UTC)” value is reported as 2 % UTC.

Same assay, conditions: Table 20; Yap1 mRNA, percent of untreated control; 3-10-3 cEt gapmers targeting SEQ ID NO.: 1 and 2
“1075142 (antisense kG*kA*kT*dA*dT*dA*d[5mC]*dG*dA*dG*dA*dA*dG*kT*kT*kG) [Compound 1075142]” was tested, and the “YAP1 (% UTC)” value was 16 % UTC.
In the case of “1075398 (antisense kT*kA*kT*dA*dT*dA*dT*dG*dG*d[5mC]*d[5mC]*d[5mC]*dT*kT*kT*kA) [Compound 1075398]”, the “YAP1 (% UTC)” value is reported as 49 % UTC.
“1074662 (antisense kG*kG*kT*dA*dG*dA*dA*dT*dT*dT*d[5mC]*dA*dT*kT*kA*k[5mC]) [Compound 1074662]” was tested, and the “YAP1 (% UTC)” value was 30 % UTC.

Same assay, conditions: Table 21; Yap1 mRNA, percent of untreated control; 3-10-3 cEt gapmers targeting SEQ ID NO.: 1 and 2
For “1075943 (kG*kT*kA*dT*dA*dT*d[5mC]*dA*dA*dA*d[5mC]*d[5mC]*dT*kT*kT*kT; antisense) [Compound 1075943]”, the “YAP1 (% UTC)” value was 15 % UTC.
“1075079 (antisense k[5mC]*kA*k[5mC]*d[5mC]*dA*dA*dA*dA*dG*d[5mC]*dT*dT*dA*kG*kT*kT) [Compound 1075079]” was tested, and the “YAP1 (% UTC)” value was 40 % UTC.
“1076263 (kA*kA*kT*dA*dA*d[5mC]*d[5mC]*dA*dA*dG*dT*dG*dA*kG*kT*kT; antisense) [Compound 1076263]” was tested, and the “YAP1 (% UTC)” value was 21 % UTC.
In the case of “1074439 (k[5mC]*kT*kG*dT*dG*dA*d[5mC]*dA*dT*dG*dA*dA*dG*k[5mC]*kA*kT; antisense) [Compound 1074439]”, the “YAP1 (% UTC)” value is reported as 2* % UTC.
“1074215 (antisense kG*k[5mC]*kT*d[5mC]*d[5mC]*dG*dG*d[5mC]*dG*dG*d[5mC]*dT*dT*kG*kA*kA) [Compound 1074215]” was tested, and the “YAP1 (% UTC)” value was 77 % UTC.
For “1076135 (k[5mC]*kA*kT*dA*dA*dT*dT*dG*dA*d[5mC]*dA*dG*dG*kT*kA*kT; antisense) [Compound 1076135]”, the “YAP1 (% UTC)” value was 14 % UTC.

Same assay, conditions: Table 22; Yap1 mRNA as percent of untreated control; 3-10-3 cEt gapmers; single dose
“1075816 (kT*kA*kG*dT*dA*dT*dA*dA*dA*dG*d[5mC]*dA*dG*kG*kG*k[5mC]; antisense) [Compound 1075816]” was tested, and the “YAP1 (% UTC)” value was 7 % UTC.
For “1075240 (antisense kT*kA*kA*dA*d[5mC]*dG*dG*dT*dT*dT*dA*dT*dA*kT*kT*k[5mC]) [Compound 1075240]”, the “YAP1 (% UTC)” value was 16 % UTC.
With “1076008 (kA*kG*k[5mC]*dG*dA*dA*dA*dA*dT*dA*dA*d[5mC]*dA*kT*kT*kA; antisense) [Compound 1076008]” the “YAP1 (% UTC)” value was 33 % UTC.

Same assay, conditions: Table 23; Yap1 mRNA as percent of untreated control; 3-10-3 cEt gapmers; single dose
“1074793 (kA*kA*kT*d[5mC]*dA*dA*dT*dG*dT*dG*d[5mC]*dT*d[5mC]*k[5mC]*kA*kT; antisense) [Compound 1074793]” was tested, and the “YAP1 (% UTC)” value was 9 % UTC.
In the case of “1074345 (antisense kT*k[5mC]*kT*dG*dA*dG*d[5mC]*dT*dA*dT*dT*dG*dG*kT*k[5mC]*kG) [Compound 1074345]”, the “YAP1 (% UTC)” value is reported as 8 % UTC.
For “1076265 (kT*kA*kT*dT*dA*d[5mC]*d[5mC]*d[5mC]*dA*dA*dT*dA*dA*k[5mC]*k[5mC]*kA; antisense) [Compound 1076265]”, the “YAP1 (% UTC)” value was 9 % UTC.
“1074729 (antisense kA*k[5mC]*kA*d[5mC]*dT*dG*dA*dG*dG*dT*dA*dT*dA*kA*k[5mC]*kT) [Compound 1074729]” was tested, and the “YAP1 (% UTC)” value was 9 % UTC.
With “1076297 (kT*kT*kA*dT*dA*dA*dA*dG*dA*d[5mC]*d[5mC]*d[5mC]*dA*kA*kT*kG; antisense) [Compound 1076297]” the “YAP1 (% UTC)” value was 52 % UTC.
“1075241 (antisense kG*kA*kT*dA*dA*dT*dT*dA*d[5mC]*dT*dA*dA*d[5mC]*kT*kG*kA) [Compound 1075241]” was tested, and the “YAP1 (% UTC)” value was 31 % UTC.

Same assay, conditions: Table 24; Yap1 mRNA as percent of untreated control; 3-10-3 cEt gapmers targeting SEQ ID NO.: 1, and 2
“1075914 (kA*kT*kT*dT*dA*dG*dG*dA*dT*dG*d[5mC]*d[5mC]*dT*kT*kT*kA; antisense) [Compound 1075914]” was tested, and the “YAP1 (% UTC)” value was 14 % UTC.
For “1076170 (kA*kG*kT*dA*dA*dA*dG*dA*dG*dT*dA*d[5mC]*dT*kG*kT*kA; antisense) [Compound 1076170]”, the “YAP1 (% UTC)” value was 16 % UTC.
For “1075050 (antisense kA*k[5mC]*k[5mC]*d[5mC]*dA*dA*d[5mC]*dG*dG*dT*d[5mC]*dA*dT*kG*kT*kT) [Compound 1075050]”, the “YAP1 (% UTC)” value was 94 % UTC.

Same assay, conditions: Table 25; Yap1 mRNA as percent of untreated control; 3-10-3 cEt gapmers targeting SEQ ID NO.: 1, and 2
For “1074923 (antisense kG*kG*kG*d[5mC]*dG*dG*dT*dA*dA*d[5mC]*dT*d[5mC]*dT*kT*k[5mC]*kT) [Compound 1074923]”, the “YAP1 (% UTC)” value was 73 % UTC.
With “1075467 (antisense k[5mC]*kA*kT*dT*dA*dA*dT*dG*d[5mC]*d[5mC]*dA*dT*d[5mC]*k[5mC]*kA*kA) [Compound 1075467]” the “YAP1 (% UTC)” value was 60 % UTC.
For “1076459 (antisense k[5mC]*kT*kT*d[5mC]*dA*dA*d[5mC]*dA*dA*dG*dA*d[5mC]*dA*kG*kG*kT) [Compound 1076459]”, the “YAP1 (% UTC)” value was 4 % UTC.

Same assay, conditions: Table 32; Yap1 mRNA, percent of untreated control; 3-10-3 cEt gapmers targeting SEQ ID NO.: 1, and 2
For “1076562 (kT*kA*kT*dT*dA*d[5mC]*dA*dG*dA*dG*dG*dG*dT*kA*kG*k[5mC]; antisense) [compound 1076562]”, the “YAP1 (% UTC)” value was 17 % UTC.
In the case of “1075090 (kG*k[5mC]*kT*dT*dA*dT*dA*dA*dT*d[5mC]*dT*dT*dT*k[5mC]*kA*kG; antisense) [compound 1075090]”, the “YAP1 (% UTC)” value is reported as 9 % UTC.
For “1075538 (kG*kA*kA*dT*dT*dG*dG*dA*dA*d[5mC]*dA*d[5mC]*d[5mC]*kT*k[5mC]*kA; antisense) [compound 1075538]”, the “YAP1 (% UTC)” value was 66 % UTC.
For “1076050 (k[5mC]*kT*kT*dT*dA*dG*dA*dT*dT*dA*dA*dA*dG*kG*k[5mC]*kT; antisense) [compound 1076050]”, the “YAP1 (% UTC)” value was 45 % UTC.
“1075410 (antisense kG*kA*kT*dT*dA*dA*d[5mC]*dA*dG*d[5mC]*d[5mC]*d[5mC]*dT*kT*kT*kA) [compound 1075410]” was tested, and the “YAP1 (% UTC)” value was 36 % UTC.

Same assay, conditions: Table 33; Yap1 mRNA, percent of untreated control; 3-10-3 cEt gapmers targeting SEQ ID NO.: 1, and 2
“1075731 (k[5mC]*k[5mC]*k[5mC]*d[5mC]*dA*dA*dT*dA*dT*dT*dA*dT*d[5mC]*kT*kA*k[5mC]; antisense) [compound 1075731]” was tested, and the “YAP1 (% UTC)” value was 40 % UTC.
With “1075251 (kT*kA*kA*dT*dT*dA*d[5mC]*dG*dA*dT*dT*dA*dG*kA*kT*k[5mC]; antisense) [compound 1075251]” the “YAP1 (% UTC)” value was 79 % UTC.
For “1075027 (antisense kA*kA*kA*dT*dT*dT*dG*dA*dA*d[5mC]*dT*dG*d[5mC]*k[5mC]*k[5mC]*kA) [compound 1075027]”, the “YAP1 (% UTC)” value was 28 % UTC.
In the case of “1074291 (antisense k[5mC]*kA*k[5mC]*dT*d[5mC]*dT*dG*dA*d[5mC]*dT*dG*dA*dT*kT*k[5mC]*kT) [compound 1074291]”, the “YAP1 (% UTC)” value is reported as 11 % UTC.

Same assay, conditions: Yap1 mRNA as percent of untreated control; A-431 cells; 3-10-3 cEt gapmers targeting SEQ ID NO.: 1, and 2; Table 30
For “1075248 (kG*kT*kA*d[5mC]*dA*dA*dA*dA*dA*dG*d[5mC]*dG*dG*kT*k[5mC]*kG; antisense) [compound 1075248]”, the “YAP1 (% UTC)” value was 64 % UTC.
With “1075984 (kT*kA*kT*d[5mC]*dG*dA*dA*dA*dA*dG*d[5mC]*dA*dA*kA*k[5mC]*kT; antisense) [compound 1075984]” the “YAP1 (% UTC)” value was 44 % UTC.
“1074416 (k[5mC]*kT*kT*dT*dA*dG*dA*dG*d[5mC]*d[5mC]*dA*dA*d[5mC]*kT*kG*kT; antisense) [compound 1074416]” was tested, and the “YAP1 (% UTC)” value was 9 % UTC.

Same assay, conditions: Yap1 mRNA as percent of untreated control; A-431 cells; 3-10-3 cEt gapmers targeting SEQ ID NO.: 1, and 2; Table 31
For “1074641 (antisense kG*kG*k[5mC]*d[5mC]*dA*dA*dA*dA*dT*dA*d[5mC]*dT*dT*kA*kG*kA) [compound 1074641]”, the “YAP1 (% UTC)” value was 107 % UTC.
